Assay results as given in patent publication US9249129B2, “Morpholino substituted urea derivatives as mTOR inhibitors” (CELLZOME LIMITED, priority 2010, dated 2016).

Columns and labels:
Assay in all cases: kinobeads assay with mass spectrometry detection of kinases (kinase selectivity profile)
Format in all cases: binding
kinases (kinome) [1] = molecular target: T1, kinases (kinome) (Homo sapiens, UniProt Q12851); conditions: GCK (STE), IPI00149094
T1 construct: determined in kinobeads assays with mass spectrometry detection of kinases as described previously; endogenous in cells; host or cells: cell lysate
T1 sequence (Q12851 1-820): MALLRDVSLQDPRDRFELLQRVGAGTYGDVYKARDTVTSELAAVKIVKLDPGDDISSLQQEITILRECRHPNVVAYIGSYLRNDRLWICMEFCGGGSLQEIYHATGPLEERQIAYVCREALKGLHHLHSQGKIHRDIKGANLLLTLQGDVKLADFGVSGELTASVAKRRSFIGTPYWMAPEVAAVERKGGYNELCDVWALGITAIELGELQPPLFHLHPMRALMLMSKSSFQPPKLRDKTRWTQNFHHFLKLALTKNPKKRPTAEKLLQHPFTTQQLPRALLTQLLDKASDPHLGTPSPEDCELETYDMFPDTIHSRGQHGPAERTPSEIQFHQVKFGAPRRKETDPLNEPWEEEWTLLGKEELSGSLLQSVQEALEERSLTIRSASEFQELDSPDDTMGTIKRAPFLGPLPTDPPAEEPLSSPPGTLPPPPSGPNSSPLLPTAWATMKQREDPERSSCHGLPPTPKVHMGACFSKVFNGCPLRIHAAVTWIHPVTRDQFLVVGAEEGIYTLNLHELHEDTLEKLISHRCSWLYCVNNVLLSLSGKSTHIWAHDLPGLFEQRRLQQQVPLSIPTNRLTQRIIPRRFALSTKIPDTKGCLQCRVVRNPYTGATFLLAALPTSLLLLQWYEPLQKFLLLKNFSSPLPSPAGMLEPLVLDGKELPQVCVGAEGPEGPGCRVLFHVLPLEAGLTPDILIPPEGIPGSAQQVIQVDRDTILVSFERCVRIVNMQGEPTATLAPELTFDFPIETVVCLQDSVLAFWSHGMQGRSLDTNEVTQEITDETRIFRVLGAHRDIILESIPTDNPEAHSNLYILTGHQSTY
From the text: (§1) The protein kinase complement of the human genome (the kinome) was described previously (Manning et al., 2002. Science 298(5600):1912-1934). Sequence accession numbers are defined by the International Protein Index (IPI) (Kersey et al., 2004. Proteomics 4(7):1985-1988).

kinases (kinome) [2] = molecular target: T2, kinases (kinome) (Homo sapiens, UniProt P16591); conditions: FER (TK), IPI00029263
T2 construct: determined in kinobeads assays with mass spectrometry detection of kinases as described previously; endogenous in cells; host or cells: cell lysate
From the text: as §1

kinases (kinome) [3] = molecular target: T3, kinases (kinome) (Homo sapiens, UniProt P29320); conditions: EphA3 (TK), IPI00298105
T3 construct: determined in kinobeads assays with mass spectrometry detection of kinases as described previously; endogenous in cells; host or cells: cell lysate
T3 sequence (P29320 21-983): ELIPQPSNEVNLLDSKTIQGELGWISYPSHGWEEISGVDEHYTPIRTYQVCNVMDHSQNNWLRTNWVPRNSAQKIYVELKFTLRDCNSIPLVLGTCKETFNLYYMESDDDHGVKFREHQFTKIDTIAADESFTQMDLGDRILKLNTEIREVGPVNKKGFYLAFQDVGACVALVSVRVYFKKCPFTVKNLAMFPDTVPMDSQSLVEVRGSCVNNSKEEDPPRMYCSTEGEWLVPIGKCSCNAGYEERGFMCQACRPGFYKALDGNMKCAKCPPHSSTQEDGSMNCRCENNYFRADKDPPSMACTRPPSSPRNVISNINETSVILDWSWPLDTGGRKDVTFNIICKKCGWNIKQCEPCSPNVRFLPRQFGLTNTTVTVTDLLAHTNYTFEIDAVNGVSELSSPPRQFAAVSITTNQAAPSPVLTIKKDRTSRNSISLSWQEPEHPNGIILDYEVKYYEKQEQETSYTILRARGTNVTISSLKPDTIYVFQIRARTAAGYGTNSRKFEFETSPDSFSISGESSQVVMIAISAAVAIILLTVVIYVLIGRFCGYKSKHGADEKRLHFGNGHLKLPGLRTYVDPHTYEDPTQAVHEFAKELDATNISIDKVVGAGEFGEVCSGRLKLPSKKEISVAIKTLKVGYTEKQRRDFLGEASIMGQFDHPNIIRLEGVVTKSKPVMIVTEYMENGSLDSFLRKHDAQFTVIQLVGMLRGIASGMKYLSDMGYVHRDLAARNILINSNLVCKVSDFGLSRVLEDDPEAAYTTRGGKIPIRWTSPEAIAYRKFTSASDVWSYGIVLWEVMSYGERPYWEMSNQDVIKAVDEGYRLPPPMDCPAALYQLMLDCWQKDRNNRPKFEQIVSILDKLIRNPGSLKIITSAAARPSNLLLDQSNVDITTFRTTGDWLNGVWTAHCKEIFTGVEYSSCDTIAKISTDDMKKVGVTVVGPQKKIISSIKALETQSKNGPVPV
From the text: as §1

kinases (kinome) [4] = molecular target: T4, kinases (kinome) (Homo sapiens, UniProt P28482); conditions: Erk2 (CMGC), IPI00003479
T4 construct: determined in kinobeads assays with mass spectrometry detection of kinases as described previously; endogenous in cells; host or cells: cell lysate
From the text: as §1

kinases (kinome) [5] = molecular target: T5, kinases (kinome) (Homo sapiens, UniProt O75676); conditions: MSK2 (AGC), IPI00022536
T5 construct: determined in kinobeads assays with mass spectrometry detection of kinases as described previously; endogenous in cells; host or cells: cell lysate
From the text: as §1

kinases (kinome) [6] = molecular target: T6, kinases (kinome) (Homo sapiens, UniProt P51617); conditions: IRAK1 (TKL), IPI00293652
T6 construct: determined in kinobeads assays with mass spectrometry detection of kinases as described previously; endogenous in cells; host or cells: cell lysate
From the text: as §1

kinases (kinome) [7] = molecular target: T7, kinases (kinome) (Homo sapiens, UniProt Q9UHD2); conditions: TBK1 (Other), IPI00293613
T7 construct: determined in kinobeads assays with mass spectrometry detection of kinases as described previously; endogenous in cells; host or cells: cell lysate
T7 sequence (Q9UHD2 1-729): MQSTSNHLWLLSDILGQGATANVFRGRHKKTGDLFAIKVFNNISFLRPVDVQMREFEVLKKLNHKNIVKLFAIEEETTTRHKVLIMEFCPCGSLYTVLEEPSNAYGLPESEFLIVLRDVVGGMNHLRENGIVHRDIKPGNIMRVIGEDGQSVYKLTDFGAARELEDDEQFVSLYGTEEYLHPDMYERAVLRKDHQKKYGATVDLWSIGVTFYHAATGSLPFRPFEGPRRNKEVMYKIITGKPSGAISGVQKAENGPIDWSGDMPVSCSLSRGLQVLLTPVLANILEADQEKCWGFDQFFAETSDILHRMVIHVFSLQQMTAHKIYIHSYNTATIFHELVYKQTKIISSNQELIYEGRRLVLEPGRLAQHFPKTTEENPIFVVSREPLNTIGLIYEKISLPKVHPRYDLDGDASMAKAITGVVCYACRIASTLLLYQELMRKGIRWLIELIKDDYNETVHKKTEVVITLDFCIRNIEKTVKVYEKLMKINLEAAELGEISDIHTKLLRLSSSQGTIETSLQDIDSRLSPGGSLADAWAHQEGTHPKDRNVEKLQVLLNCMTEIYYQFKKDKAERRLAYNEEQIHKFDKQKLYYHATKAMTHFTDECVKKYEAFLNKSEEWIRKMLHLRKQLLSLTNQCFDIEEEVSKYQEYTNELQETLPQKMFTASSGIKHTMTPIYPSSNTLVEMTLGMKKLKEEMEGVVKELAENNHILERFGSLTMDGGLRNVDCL
From the text: as §1

T4 sequence (P28482 whole entry): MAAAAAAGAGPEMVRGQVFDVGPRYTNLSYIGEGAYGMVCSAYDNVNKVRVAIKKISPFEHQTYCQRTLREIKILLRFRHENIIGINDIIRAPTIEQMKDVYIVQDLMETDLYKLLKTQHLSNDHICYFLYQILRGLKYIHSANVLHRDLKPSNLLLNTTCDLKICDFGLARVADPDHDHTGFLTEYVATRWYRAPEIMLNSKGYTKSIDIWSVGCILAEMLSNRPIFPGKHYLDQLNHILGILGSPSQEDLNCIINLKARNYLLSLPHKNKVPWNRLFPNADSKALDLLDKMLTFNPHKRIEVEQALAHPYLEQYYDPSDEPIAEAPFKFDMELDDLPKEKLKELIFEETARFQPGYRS
T2 sequence (P16591 whole entry): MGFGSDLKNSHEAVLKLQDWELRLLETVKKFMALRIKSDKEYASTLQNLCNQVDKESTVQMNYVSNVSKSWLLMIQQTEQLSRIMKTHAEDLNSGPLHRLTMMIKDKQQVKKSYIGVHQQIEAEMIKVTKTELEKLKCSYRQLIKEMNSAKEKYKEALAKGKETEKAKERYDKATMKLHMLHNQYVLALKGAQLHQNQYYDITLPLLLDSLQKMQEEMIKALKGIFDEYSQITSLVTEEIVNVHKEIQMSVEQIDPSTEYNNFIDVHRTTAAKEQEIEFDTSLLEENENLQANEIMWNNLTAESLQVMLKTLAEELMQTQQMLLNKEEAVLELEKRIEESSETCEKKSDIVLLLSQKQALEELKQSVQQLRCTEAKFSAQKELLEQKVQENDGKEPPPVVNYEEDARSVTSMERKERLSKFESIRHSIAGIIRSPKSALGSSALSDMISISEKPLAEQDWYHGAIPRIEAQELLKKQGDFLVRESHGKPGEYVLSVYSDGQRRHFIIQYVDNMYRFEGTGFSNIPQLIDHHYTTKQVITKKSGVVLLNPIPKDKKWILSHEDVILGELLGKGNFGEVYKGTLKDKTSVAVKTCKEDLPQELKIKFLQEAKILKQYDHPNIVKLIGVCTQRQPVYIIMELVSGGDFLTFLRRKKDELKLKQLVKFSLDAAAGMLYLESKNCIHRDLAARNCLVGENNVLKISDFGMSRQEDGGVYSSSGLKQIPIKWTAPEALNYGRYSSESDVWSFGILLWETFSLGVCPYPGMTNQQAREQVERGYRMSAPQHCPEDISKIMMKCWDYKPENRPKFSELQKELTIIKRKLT
T5 sequence (O75676 whole entry): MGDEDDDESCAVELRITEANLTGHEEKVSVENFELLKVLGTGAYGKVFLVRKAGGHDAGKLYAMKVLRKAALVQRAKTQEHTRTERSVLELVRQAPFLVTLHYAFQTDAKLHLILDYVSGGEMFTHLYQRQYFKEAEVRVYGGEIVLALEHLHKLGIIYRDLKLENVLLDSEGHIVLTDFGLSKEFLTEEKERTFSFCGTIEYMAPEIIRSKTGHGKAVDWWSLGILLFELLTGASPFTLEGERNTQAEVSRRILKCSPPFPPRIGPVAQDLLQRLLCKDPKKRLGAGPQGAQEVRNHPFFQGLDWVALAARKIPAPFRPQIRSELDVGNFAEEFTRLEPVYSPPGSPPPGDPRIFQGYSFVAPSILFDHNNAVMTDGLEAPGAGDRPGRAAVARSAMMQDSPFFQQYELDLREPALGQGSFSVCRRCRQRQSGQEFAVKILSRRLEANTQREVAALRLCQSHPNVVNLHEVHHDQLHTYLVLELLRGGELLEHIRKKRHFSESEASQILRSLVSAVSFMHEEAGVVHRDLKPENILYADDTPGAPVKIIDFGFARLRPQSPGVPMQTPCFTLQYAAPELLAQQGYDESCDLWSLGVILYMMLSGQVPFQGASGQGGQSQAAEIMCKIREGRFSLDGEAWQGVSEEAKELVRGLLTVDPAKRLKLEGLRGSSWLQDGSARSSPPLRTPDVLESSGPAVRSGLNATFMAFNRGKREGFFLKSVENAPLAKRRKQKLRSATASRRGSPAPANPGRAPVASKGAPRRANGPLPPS
T6 sequence (P51617 whole entry): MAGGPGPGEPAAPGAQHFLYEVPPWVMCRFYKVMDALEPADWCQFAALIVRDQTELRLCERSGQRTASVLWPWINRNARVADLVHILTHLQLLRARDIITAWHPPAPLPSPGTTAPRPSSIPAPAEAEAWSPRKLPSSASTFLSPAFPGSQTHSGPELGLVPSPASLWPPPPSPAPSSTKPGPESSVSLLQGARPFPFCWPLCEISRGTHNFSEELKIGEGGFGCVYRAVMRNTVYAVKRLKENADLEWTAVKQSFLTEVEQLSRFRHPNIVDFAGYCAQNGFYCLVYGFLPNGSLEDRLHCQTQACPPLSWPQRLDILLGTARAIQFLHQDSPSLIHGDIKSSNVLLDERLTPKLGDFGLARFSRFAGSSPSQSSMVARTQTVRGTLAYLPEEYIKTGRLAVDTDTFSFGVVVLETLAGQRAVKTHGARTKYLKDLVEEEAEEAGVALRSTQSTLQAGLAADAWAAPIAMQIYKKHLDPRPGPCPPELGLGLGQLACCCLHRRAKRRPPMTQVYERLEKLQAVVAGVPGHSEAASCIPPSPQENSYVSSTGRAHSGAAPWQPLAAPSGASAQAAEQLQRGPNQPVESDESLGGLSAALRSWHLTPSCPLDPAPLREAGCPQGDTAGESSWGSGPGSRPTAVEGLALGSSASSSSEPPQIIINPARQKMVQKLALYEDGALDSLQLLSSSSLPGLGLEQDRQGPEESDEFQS

Row | SMILES | IC50 (kinases (kinome) [1]) [µM] | IC50 (kinases (kinome) [2]) [µM] | IC50 (kinases (kinome) [3]) [µM] | IC50 (kinases (kinome) [4]) [µM] | IC50 (kinases (kinome) [5]) [µM] | IC50 (kinases (kinome) [6]) [µM] | IC50 (kinases (kinome) [7]) [µM]
1 | C[C@H]1COCCN1c1nc(-c2ccc(NC(=O)N[C@H]3CCC[C@@H]3O)cc2)cc(-c2cc(F)ccc2S(C)(=O)=O)n1 [Example 76, 1-(4-(6-(5-fluoro-2-(methylsulfonyl)phenyl)-2-((S)-3-methylmorpholino)pyrimidin-4-yl)phenyl)-3-((1S,2S)-2-hydroxycyclopentyl)urea] | > 10 | > 10 | – | > 10 | – | > 10 | > 10
2 | C[C@H]1COCCN1c1cc(-c2ccccn2)nc(-c2ccc(NC(=O)NCCO)cc2)n1 [Example 43, (S)-1-(2-hydroxyethyl)-3-(4-(4-(3-methylmorpholino)-6-(pyridin-2-yl)pyrimidin-2-yl)phenyl)urea] | > 10 | > 10 | > 10 | > 10 | > 10 | > 10 | > 10
3 | C[C@H]1COCCN1c1cc(-c2ccccc2S(C)(=O)=O)nc(-c2ccc(NC(=O)NC3CC3)cc2)n1 [Example 6, (S)-1-cyclopropyl-3-(4-(4-(3-methylmorpholino)-6-(2-(methylsulfonyl)phenyl)pyrimidin-2-yl)phenyl)urea] | > 10 | > 10 | – | > 10 | – | – | > 10
4 | CCNC(=O)Nc1ccc(-c2cc(-c3ccccc3C#N)nc(N3CCOC[C@@H]3C)n2)cc1 [Example 8, (S)-1-(4-(6-(2-cyanophenyl)-2-(3-methylmorpholino)pyrimidin-4-yl)phenyl)-3-ethylurea] | > 10 | > 10 | > 10 | > 10 | – | – | > 10

Continued, values first:

Row | IC50 (kinases (kinome) [1]) [µM] | IC50 (kinases (kinome) [2]) [µM] | IC50 (kinases (kinome) [3]) [µM] | IC50 (kinases (kinome) [4]) [µM] | IC50 (kinases (kinome) [5]) [µM] | IC50 (kinases (kinome) [6]) [µM] | IC50 (kinases (kinome) [7]) [µM] | SMILES
5 | > 10 | > 10 | > 10 | > 10 | > 10 | > 10 | > 10 | C[C@H]1COCCN1c1nc(-c2ccc(NC(=O)NC3CC3)cc2)cc(-c2cccnc2S(C)(=O)=O)n1 [Example 46, (S)-1-cyclopropyl-3-(4-(2-(3-methylmorpholino)-6-(2-(methylsulfonyl)pyridin-3-yl)pyrimidin-4-yl)phenyl)urea]
6 | > 10 | > 10 | > 10 | > 10 | – | > 10 | > 10 | C[C@H]1COCCN1c1nc(-c2ccc(NC(=O)NC3CC3)cc2)cc(-c2ccccc2S(C)(=O)=O)n1 [Example 4, (S)-1-cyclopropyl-3-(4-(2-(3-methylmorpholino)-6-(2-(methylsulfonyl)phenyl)pyrimidin-4-yl)phenyl)urea]
7 | > 10 | > 10 | > 10 | > 10 | > 10 | > 10 | > 10 | C[C@H]1COCCN1c1nc(-c2ccc(NC(=O)NC3CC3)cc2)cc(-c2cc(F)ccc2S(C)(=O)=O)n1 [Example 40, (S)-1-cyclopropyl-3-(4-(6-(5-fluoro-2-(methylsulfonyl)phenyl)-2-(3-methylmorpholino)pyrimidin-4-yl)phenyl)urea]
